One test concerns Raf-1 and Rap1. The test can be described thus: Association of Raf-1 with His-Rap1 (Ni-NTA pull-down), NIH3T3 cells. The test is classed as cell-based. Particulars: Forskolin-stimulated NIH3T3 cells. Here is the method: NIH3T3 cells were transfected using Lipofectamine (see EXAMPLE 1) with polyhistidine-tagged Rap1 along with CBR or Cb1-ct (see EXAMPLE 2) as previously described (Schmitt and Stork, Mol. Cell. Biol. 21:3671-83, 2001; Schmitt and Stork, J. Biol. Chem. 275:25342-50,2000). Cells were left untreated or stimulated with Forskolin, as described in EXAMPLE 1. Subsequently, cells were lysed in ice-cold buffer containing 1% NP40, 10 mM Tris, pH 8.0, 20 mM NaCl, 30 mM MgCl2, 1 mM PMSF, and 0.5 mg/ml aprotinin and supernatants prepared by low speed centrifugation. Transfected His-Rap1 proteins were precipitated from supernatants containing equal amounts of protein using Ni-NTA agarose (Qiagen Inc., Chatswoth, Calif.) and washed with 20 mM imidazole in lysis buffer and eluted with 500 mM imidazole and 5 mM EDTA in phosphate-buffered saline. The eluates containing His-Rap1 proteins were separated on SDS-PAGE, blotted onto PVDF membranes, and Raf-1 proteins detected by Western blotting using anti-Raf-1 antibodies (Santa Cruz Biotechnology Inc.).

The test system of a further test is Cb1/C3G with Src. The test is described as follows: Co-immunoprecipitation of Src, Cb1 and C3G, Hek293 cells. Type of test: cell-based. Here is the method:
To examine whether a similar mechanism might underlie signaling from GPCRs, the following methods were used. Hek293 cells were transfected with Flag-tagged SrcWT, SrcS17A, or SrcS17D, using the methods disclosed herein. Cells were treated with 10 μM isoproterenol and equivalent amounts of lysates immunoprecipitated with Flag antibody. The presence of endogenous Cb1 within the eluates was examined by Western blotting. The ability of isoproterenol to induce Rap1-recruitment of B-Raf was blocked by both Cb1-ct and CBR.
Cells were treated with isoproterenol or left untreated and equal amounts of lysates immunoprecipitated with Myc antibody and the presence of endogenous C3G within the eluates examined by Westein blot using the methods disclosed herein.
Equivalent amounts of lysates were immunoprecipitated with Flag antibody and the presence of endogenous C3G within the eluates was examined by Western blots as described herein.

The subject of test [1] is Rap1. The test can be described thus: Rap1 activation assay in Src++ and SYF fibroblasts. Type of test: cell-based, mouse. The protocol: The Rap1 activation affinity assay was performed as follows. A GST fusion protein of the Rap1-binding domain of RalGDS (GST-RalGDS, Dr. Bos, Utrecht University, The Netherlands) was expressed in E. coli following induction by isopropyl-1thio-β-D-galactopyranoside. Active Rap1 was isolated as previously described (Franke et al., EMBO J. 16:252-9, 1997). Briefly, equivalent amounts of supernatants (500 μg) were incubated with GST-RalGDS-Rap1 binding domain coupled to glutathione beads. Following a one hour incubation at 4° C., beads were pelleted and rinsed threes times with ice-cold lysis buffer. The protein was eluted from the beads using 2× Laemmli buffer and applied to a 12% SDS-polyacrylamide gel. […] Proteins were detected using enhanced chemiluminescence. […]
Following selection, SYF cells were left untreated or stimulated with Forskolin in the presence or absence of H89 or PP2. Cells were lysed in ice-cold lysis buffer and the lysates analyzed by Western blot for phosphorylation of myc-ERK2 as described above. […]
SYF cells were co-transfected with Flag-Rap1 and either vector, Flag-Src, or Flag-SrcS 17A and stimulated with Forskolin as described in the above examples. Cell lysates were examined for Rap1 activation using the method described in EXAMPLE 1 or analyzed by Western blot to identify Flag-containing proteins. […]

Test [2] concerns Rap1. The settings on record: NIH3T3 cells, pretreatment; cited from earlier work.

Results on three compounds are retold here after patent publication US20050037446A1, “Agents that recognize src when phosphorylated at serine 17” (priority 2001, published 2005).

With `CC(C)(C)n1nc(-c2ccc(Cl)cc2)c2c(N)ncnc21` [PP2, 4-amino-5-(4-chlorophenyl)-7-(t-butyl)pyazolo[3,4-d]pyrimidine], the “Effect on association between Raf-1 and Rap1” value in the test on Raf-1 and Rap1 is given as “blocked”.

As for `CC(C)NCC(O)c1ccc(O)c(O)c1` (centres unmarked) [isoproterenol], in the test with Cb1/C3G with Src, the “Association between C3G and transfected Cb1” value was “induced an association”. In addition, the entries for the “Rap1 activation by agonist” value in the test on Rap1 [1] (SYF cells) and in the test on Rap1 [1] (Src++ cells) were “absent” and “retained”, respectively.

`O=S(=O)(NCCNC/C=C/c1ccc(Br)cc1)c1cccc2cnccc12` [H89, N-[2(Bromocimamylamino)ethyl]-5-isoquinolinesulfonamide]: in the test with Rap1 [2], the “Effect on Forskolin's activation of endogenous Rap1” value is given as “blocked”.
